Laboratory results reported in PubChem BioAssay AID2060347 (Molecular Pharmacology Branch, DTP, NCI, 2025).
Several values for one entry are separate records, joined by “and”; a condition that tells them apart may be missing. Equal entries are not always repeated. Activity calls are given as the source filed them. Rule for the calls: active = viability on the fitted dose curve at most 10% of control; inactive = the rest.

Tested on: 817829-284-R-J1-PDC spheroids with HUVEC/MSC, viability
Test: Anticancer human tumor 817829-284-R-J1-PDC patient-derived colon adenocarcinoma cell line growth inhibition [TAK]
Details: for viability, T/C: stronger effect = lower value
How it was run: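 Spheroids of 60% malignant cells, 25% HUVEC and 15% hMSC were exposed to targeted agents combined with TAK-243 or ipatasertib. Concentrations started at or near clinical Cmax (10 microM if unknown) and descended in half-log steps.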

[1] = curve of first compound, second compound 0.3 µM
[2] = curve of first compound, second compound 0.949 µM
[3] = curve of first compound, second compound 3 µM
[4] = curve of first compound, second compound 9.49 µM
[5] = curve of first compound, second compound 30 µM
[6] = second compound 0.3 µM, first compound 0.000316 µM
[7] = second compound 0.3 µM, first compound 0.001 µM
[8] = second compound 0.3 µM, first compound 0.00316 µM
[9] = second compound 0.3 µM, first compound 0.01 µM
[10] = second compound 0.3 µM, first compound 0.0316 µM
[11] = second compound 0.3 µM, first compound 0.1 µM
[12] = second compound 0.949 µM, first compound 0.000316 µM
[13] = second compound 0.949 µM, first compound 0.001 µM
[14] = second compound 0.949 µM, first compound 0.00316 µM
[15] = second compound 0.949 µM, first compound 0.01 µM
[16] = second compound 0.949 µM, first compound 0.0316 µM
[17] = second compound 0.949 µM, first compound 0.1 µM
[18] = second compound 3 µM, first compound 0.000316 µM
[19] = second compound 3 µM, first compound 0.001 µM
[20] = second compound 3 µM, first compound 0.00316 µM
[21] = second compound 3 µM, first compound 0.01 µM
[22] = second compound 3 µM, first compound 0.0316 µM
[23] = second compound 3 µM, first compound 0.1 µM
[24] = second compound 9.49 µM, first compound 0.000316 µM
[25] = second compound 9.49 µM, first compound 0.001 µM
[26] = second compound 9.49 µM, first compound 0.00316 µM
[27] = second compound 9.49 µM, first compound 0.01 µM
[28] = second compound 9.49 µM, first compound 0.0316 µM
[29] = second compound 9.49 µM, first compound 0.1 µM
[30] = second compound 30 µM, first compound 0.000316 µM
[31] = second compound 30 µM, first compound 0.001 µM
[32] = second compound 30 µM, first compound 0.00316 µM
[33] = second compound 30 µM, first compound 0.01 µM
[34] = second compound 30 µM, first compound 0.0316 µM
[35] = second compound 30 µM, first compound 0.1 µM

CC(C)n1nc(-c2ccc3oc(N)nc3c2)c2c(N)ncnc21 + CC(C)NCC(C(=O)N1CCN(c2ncnc3c2C(C)CC3O)CC1)c1ccc(Cl)cc1
inactive: viability, T/C [6] 95.8% | viability, T/C [7] 97.5% | viability, T/C [8] 81.4% | viability, T/C [9] 62.4% | viability, T/C [10] 29.9% | viability, T/C [11] 18% | viability, T/C [12] 62% | viability, T/C [13] 63.8% | viability, T/C [14] 26.7% | viability, T/C [15] 20.4% | viability, T/C [16] 14.1% | viability, T/C [17] 9.37% | viability, T/C [18] 17.9% | viability, T/C [19] 22.1% | viability, T/C [20] 14.9% | viability, T/C [21] 10.1% | viability, T/C [24] 9.8%
active: viability, T/C [22] 9.06% | viability, T/C [23] 7.73% | viability, T/C [25] 12.5% | viability, T/C [26] 7.29% | viability, T/C [27] 7.54% | viability, T/C [28] 4.98% | viability, T/C [29] 4.87% | viability, T/C [30] 6.54% | viability, T/C [31] 6.66% | viability, T/C [32] 5.92% | viability, T/C [33] 3.93% | viability, T/C [34] 3.59% | viability, T/C [35] 3.29%
1.51 nM: IC50 [2]
15 nM: IC50 [1]
< 0.316 nM: IC50 [3] | IC50 [4] | IC50 [5]

COC1CC2CCC(C)C(O)(O2)C(=O)C(=O)N2CCCCC2C(=O)OC(C(C)CC2CCC(OCCO)C(OC)C2)CC(=O)C(C)C=C(C)C(O)C(OC)C(=O)C(C)CC(C)C=CC=CC=C1C (stereo unspecified) + CC(C)NCC(C(=O)N1CCN(c2ncnc3c2C(C)CC3O)CC1)c1ccc(Cl)cc1
14.5 nM: IC50 [1]
active: viability, T/C [30] 7.9% | viability, T/C [31] 7.4% | viability, T/C [32] 6.49% | viability, T/C [33] 6.32% | viability, T/C [34] 6.79% | viability, T/C [35] 6.34%
inactive: viability, T/C [6] 90.9% | viability, T/C [7] 76.7% | viability, T/C [8] 61.8% | viability, T/C [9] 49.9% | viability, T/C [10] 49.7% | viability, T/C [11] 40.8% | viability, T/C [12] 59% | viability, T/C [13] 33.4% | viability, T/C [14] 33.7% | viability, T/C [15] 31.7% | viability, T/C [16] 28.6% | viability, T/C [17] 28.9% | viability, T/C [18] 23.3% | viability, T/C [19] 19.9% | viability, T/C [20] 16.4% | viability, T/C [21] 16% | viability, T/C [22] 18.3% | viability, T/C [23] 13.7% | viability, T/C [24] 12.9% | viability, T/C [25] 12.5% | viability, T/C [26] 12.6% | viability, T/C [27] 12.7% | viability, T/C [28] 9.91% | viability, T/C [29] 12.8%
0.479 nM: IC50 [2]
< 0.316 nM: IC50 [3] | IC50 [4] | IC50 [5]

CCCS(=O)(=O)Nc1ccc(F)c(C(=O)c2c[nH]c3ncc(-c4ccc(Cl)cc4)cc23)c1F
inactive: viability, T/C (compound 0.316 µM) 89.1% and 93% | viability, T/C (compound 1 µM) 81.3% and 89.1% | viability, T/C (compound 3.16 µM) 62.7% and 34.4% | viability, T/C (compound 10 µM) 12.4% and 10.9% | viability, T/C (compound 31.6 µM) 56.8% and 26.3% | viability, T/C (compound 100 µM) 59.9% and 43.6%
6650 nM and 2270 nM: IC50 (curve of compound)

CC(C)n1nc(-c2ccc3oc(N)nc3c2)c2c(N)ncnc21
39.4 nM and 50 nM: IC50 (curve of compound)
inactive: viability, T/C (compound 0.000316 µM) 101% and 104% | viability, T/C (compound 0.001 µM) 102% and 99% | viability, T/C (compound 0.00316 µM) 101% and 102% | viability, T/C (compound 0.01 µM) 93% and 92.9% | viability, T/C (compound 0.0316 µM) 56.8% and 61.2% | viability, T/C (compound 0.1 µM) 21.3% and 33.1%

CC(C)CC(NC(=O)C(Cc1ccccc1)NC(=O)c1cnccn1)B(O)O (stereo unspecified) + CC(C)NCC(C(=O)N1CCN(c2ncnc3c2C(C)CC3O)CC1)c1ccc(Cl)cc1
4.91 nM: IC50 [1]
< 0.0316 nM: IC50 [3] | IC50 [4] | IC50 [5]
inactive: viability, T/C (second compound 0.3 µM, first compound 31.6 pM) 108% | viability, T/C (second compound 0.3 µM, first compound 0.0001 µM) 104% | viability, T/C [6] 105% | viability, T/C [7] 100% | viability, T/C [8] 80.7% | viability, T/C (second compound 0.949 µM, first compound 31.6 pM) 88% | viability, T/C (second compound 0.949 µM, first compound 0.0001 µM) 60.8% | viability, T/C [12] 64.6% | viability, T/C [13] 77.2% | viability, T/C [14] 66.7% | viability, T/C (second compound 3 µM, first compound 31.6 pM) 29.4% | viability, T/C (second compound 3 µM, first compound 0.0001 µM) 22.9% | viability, T/C [18] 29.9% | viability, T/C [19] 22.3% | viability, T/C [20] 19.9% | viability, T/C (second compound 9.49 µM, first compound 31.6 pM) 12.7% | viability, T/C (second compound 9.49 µM, first compound 0.0001 µM) 13.2% | viability, T/C [24] 11.6% | viability, T/C (second compound 30 µM, first compound 31.6 pM) 8.2%
active: viability, T/C [9] 0.6% | viability, T/C [15] 0.35% | viability, T/C [21] 0.2% | viability, T/C [25] 13.6% | viability, T/C [26] 8.78% | viability, T/C [27] 0.15% | viability, T/C (second compound 30 µM, first compound 0.0001 µM) 8.27% | viability, T/C [30] 10.2% | viability, T/C [31] 9.25% | viability, T/C [32] 6.13% | viability, T/C [33] 0.2%
4.23 nM: IC50 [2]

CC(C)(C)c1nc(-c2cccc(NS(=O)(=O)c3c(F)cccc3F)c2F)c(-c2ccnc(N)n2)s1
inactive: viability, T/C (compound 0.0316 µM) 98.1% and 94% | viability, T/C (compound 0.1 µM) 87.5% and 82.2% | viability, T/C (compound 0.316 µM) 54.2% and 63.3% | outcome (compound 1 µM) | viability, T/C (compound 1 µM) 31% | viability, T/C (compound 3.16 µM) 64.7% and 54.7% | viability, T/C (compound 10 µM) 46.4% and 50.4%
